# Assay: Phase I safety and tolerability (DLTs, adverse events, laboratory, ECG)
# Format: in vivo
# Experimental: This study employed a standard 3 + 3 dose escalation design with a starting dose of 25 mg QD. […] Dose escalation decisions took into account all available data from evaluable subjects as well as PK and the safety profile of prior dose cohorts. […] There was a minimum 5-day stagger between dosing of the first and second subjects in each dose cohort. Dose escalation decisions were made by a data review committee (DRC) composed of, at minimum, the medical monitor, at least one principal investigator, and a sponsor representative, per the study DRC Plan. Dose escalation could continue until 2 or more subjects in the same dose cohort experienced a dose-limiting toxicity (DLT). DLTs were defined as Grade 3 or 4 adverse drug reactions (ADRs), with grades as defined in the National Cancer Institute Common Toxicity Criteria for Adverse Events (NCI-CTCAE) version 5.0. […] The MTD was defined as the highest dose at which no more than 1 of 6 subjects experienced a DLT during cycle 1 of the study drug. The MTD would have been exceeded if 2 or more subjects in a dose cohort of up to 6 subjects experienced a DLT. Subjects could continue treatment until disease progression, unacceptable toxicity, death, withdrawal of consent, or loss to follow-up.
# Before enrolment in the study, all patients received a detailed medical history and physical examination. Clinical laboratory evaluations included clinical chemistry, complete blood count, urinalysis, coagulation factors, and a lipid panel. Other safety assessments included vital signs, physical examination, electrocardiogram, and echocardiogram with multigated acquisition (ECHO/MUGA). Safety assessments were performed on days 1, 8, 15, and 21 of cycle 1, and on day 1 of cycles 2 to 6.
# [1] = Grade All, Overall Study (N = 35)
# [2] = Possibly related, Overall BID (N = 15)
# [3] = Possibly related, Overall QD (N = 20)
# [4] = Possibly related, Overall Study (N = 35)
# [5] = Probably related, Overall BID (N = 15)
# [6] = Probably related, Overall QD (N = 20)
# [7] = Probably related, Overall Study (N = 35)
# [8] = Relatedness All, Overall BID (N = 15)
# [9] = Relatedness All, Overall QD (N = 20)
# [10] = Relatedness All, Overall Study (N = 35)
structure (smiles),measurement,setting,value
"Nc1ncc(-c2cnn(C3CCNCC3)c2)cc1-c1nnc(CC2CC2)o1 [SLC-391, 3-(5-[cyclopropylmethyl]-1,3,4-oxadiazol-2-yl)-5-(1-[piperidin-4-yl]-1H-pyrazol-4-yl)-pyridin-2-amine]",TEAE: Musculoskeletal and connective tissue disorders,[1],14 (40.0) n (%)
same,TEAE: Nausea,[1],24 (68.6) n (%)
same,TEAE: Nervous system disorders,[1],15 (42.9) n (%)
same,TEAE: Oedema peripheral,[1],4 (11.4) n (%)
same,TEAE: Psychiatric disorders,[1],5 (14.3) n (%)
same,TEAE: Pyrexia,[1],5 (14.3) n (%)
same,TEAE: Renal and urinary disorders,[1],6 (17.1) n (%)
same,"TEAE: Respiratory, thoracic, and mediastinal disorders",[1],19 (54.3) n (%)
same,TEAE: Skin and subcutaneous tissue disorders,[1],10 (28.6) n (%)
same,TEAE: Urinary tract infection,[1],4 (11.4) n (%)
same,TEAE: Vascular disorders,[1],5 (14.3) n (%)
same,TEAE: Vomiting,[1],17 (48.6) n (%)
same,TEAE: Weight decreased,[1],6 (17.1) n (%)
same,Any treatment-related adverse event (TRAE),[2],7 (46.7%) n (%)
same,TRAE: Decreased appetite,[2],1 (6.7%) n (%)
same,TRAE: Diarrhoea,[2],4 (26.7%) n (%)
same,TRAE: Dysgeusia,[2],1 (6.7%) n (%)
same,TRAE: Fatigue,[2],3 (20.0%) n (%)
same,TRAE: Gastrointestinal disorders,[2],5 (33.3%) n (%)
same,TRAE: General disorders and administration site conditions,[2],3 (20.0%) n (%)
same,TRAE: Metabolism and nutrition disorders,[2],1 (6.7%) n (%)
same,TRAE: Nausea,[2],4 (26.7%) n (%)
same,TRAE: Nervous system disorders,[2],1 (6.7%) n (%)
same,TRAE: Skin and subcutaneous tissue disorders,[2],2 (13.3%) n (%)
same,TRAE: Vomiting,[2],1 (6.7%) n (%)
same,Any treatment-related adverse event (TRAE),[3],8 (40.0%) n (%)
same,TRAE: Decreased appetite,[3],3 (15.0%) n (%)
same,TRAE: Diarrhoea,[3],5 (25.0%) n (%)
same,TRAE: Dysgeusia,[3],0 n (%)
same,TRAE: Fatigue,[3],2 (10.0%) n (%)
same,TRAE: Gastrointestinal disorders,[3],8 (40.0%) n (%)
same,TRAE: General disorders and administration site conditions,[3],3 (15.0%) n (%)
same,TRAE: Metabolism and nutrition disorders,[3],4 (20.0%) n (%)
same,TRAE: Nausea,[3],5 (25.0%) n (%)
same,TRAE: Nervous system disorders,[3],1 (5.0%) n (%)
same,TRAE: Skin and subcutaneous tissue disorders,[3],4 (20.0%) n (%)
same,TRAE: Vomiting,[3],3 (15.0%) n (%)
same,Any treatment-related adverse event (TRAE),[4],15 (42.9%) n (%)
same,TRAE: Decreased appetite,[4],4 (11.4%) n (%)
same,TRAE: Diarrhoea,[4],9 (25.7%) n (%)
same,TRAE: Dysgeusia,[4],1 (2.9%) n (%)
same,TRAE: Fatigue,[4],5 (14.3%) n (%)
same,TRAE: Gastrointestinal disorders,[4],13 (37.1%) n (%)
same,TRAE: General disorders and administration site conditions,[4],6 (17.1%) n (%)
same,TRAE: Metabolism and nutrition disorders,[4],5 (14.3%) n (%)
same,TRAE: Nausea,[4],9 (25.7%) n (%)
same,TRAE: Nervous system disorders,[4],2 (5.7%) n (%)
same,TRAE: Skin and subcutaneous tissue disorders,[4],6 (17.1%) n (%)
same,TRAE: Vomiting,[4],4 (11.4%) n (%)
same,Any treatment-related adverse event (TRAE),[5],1 (6.7%) n (%)
same,TRAE: Diarrhoea,[5],1 (6.7%) n (%)
same,TRAE: Dysgeusia,[5],0 n (%)
same,TRAE: Gastrointestinal disorders,[5],1 (6.7%) n (%)
same,TRAE: Nausea,[5],0 n (%)
same,TRAE: Nervous system disorders,[5],0 n (%)
same,TRAE: Skin and subcutaneous tissue disorders,[5],0 n (%)
same,TRAE: Vomiting,[5],0 n (%)
same,Any treatment-related adverse event (TRAE),[6],3 (15.0%) n (%)
same,TRAE: Diarrhoea,[6],0 n (%)
same,TRAE: Dysgeusia,[6],1 (5.0%) n (%)
same,TRAE: Gastrointestinal disorders,[6],2 (10.0%) n (%)
same,TRAE: Nausea,[6],2 (10.0%) n (%)
same,TRAE: Nervous system disorders,[6],2 (10.0%) n (%)
same,TRAE: Skin and subcutaneous tissue disorders,[6],2 (10.0%) n (%)
same,TRAE: Vomiting,[6],1 (5.0%) n (%)
same,Any treatment-related adverse event (TRAE),[7],4 (11.4%) n (%)
same,TRAE: Diarrhoea,[7],1 (2.9%) n (%)
same,TRAE: Dysgeusia,[7],1 (2.9%) n (%)
same,TRAE: Gastrointestinal disorders,[7],3 (8.6%) n (%)
same,TRAE: Nausea,[7],2 (5.7%) n (%)
same,TRAE: Nervous system disorders,[7],2 (5.7%) n (%)
same,TRAE: Skin and subcutaneous tissue disorders,[7],2 (5.7%) n (%)
same,TRAE: Vomiting,[7],1 (2.9%) n (%)
same,"SAEs, subjects",QD cohorts,20.0%
same,TEAEs leading to treatment interruption or missed dose,QD cohorts,20.0%
same,"TEAEs leading to treatment or study discontinuation, subjects",QD cohorts,20.0%
same,subjects with Grade 3 TEAEs,QD cohorts,30.0%
same,subjects with TRAEs,QD cohorts,90.0%
same,subjects with at least one TEAE,QD cohorts,95.0%
same,Any treatment-related adverse event (TRAE),[8],13 (86.7%) n (%)
same,TRAE: Decreased appetite,[8],3 (20.0%) n (%)
same,TRAE: Diarrhoea,[8],7 (46.7%) n (%)
same,TRAE: Dysgeusia,[8],2 (13.3%) n (%)
same,TRAE: Fatigue,[8],4 (26.7%) n (%)
same,TRAE: Gastrointestinal disorders,[8],11 (73.3%) n (%)
same,TRAE: General disorders and administration site conditions,[8],4 (26.7%) n (%)
same,TRAE: Metabolism and nutrition disorders,[8],3 (20.0%) n (%)
same,TRAE: Nausea,[8],8 (53.3%) n (%)
same,TRAE: Nervous system disorders,[8],2 (13.3%) n (%)
same,TRAE: Skin and subcutaneous tissue disorders,[8],2 (13.3%) n (%)
same,TRAE: Vomiting,[8],4 (26.7%) n (%)
same,Any treatment-related adverse event (TRAE),[9],18 (90.0%) n (%)
same,TRAE: Decreased appetite,[9],5 (25.0%) n (%)
same,TRAE: Diarrhoea,[9],10 (50.0%) n (%)
same,TRAE: Dysgeusia,[9],2 (10.0%) n (%)
same,TRAE: Fatigue,[9],5 (25.0%) n (%)
same,TRAE: Gastrointestinal disorders,[9],16 (80.0%) n (%)
same,TRAE: General disorders and administration site conditions,[9],6 (30.0%) n (%)
same,TRAE: Metabolism and nutrition disorders,[9],6 (30.0%) n (%)
same,TRAE: Nausea,[9],11 (55.0%) n (%)
same,TRAE: Nervous system disorders,[9],4 (20.0%) n (%)
same,TRAE: Skin and subcutaneous tissue disorders,[9],6 (30.0%) n (%)
same,TRAE: Vomiting,[9],9 (45.0%) n (%)
same,Any treatment-related adverse event (TRAE),[10],31 (88.6%) n (%)
same,TRAE: Decreased appetite,[10],8 (22.9%) n (%)
same,TRAE: Diarrhoea,[10],17 (48.6%) n (%)
same,TRAE: Dysgeusia,[10],4 (11.4%) n (%)
same,TRAE: Fatigue,[10],9 (25.7%) n (%)
same,TRAE: Gastrointestinal disorders,[10],27 (77.1%) n (%)
same,TRAE: General disorders and administration site conditions,[10],10 (28.6%) n (%)
same,TRAE: Metabolism and nutrition disorders,[10],9 (25.7%) n (%)
same,TRAE: Nausea,[10],19 (54.3%) n (%)
same,TRAE: Nervous system disorders,[10],6 (17.1%) n (%)
same,TRAE: Skin and subcutaneous tissue disorders,[10],8 (22.9%) n (%)
same,TRAE: Vomiting,[10],13 (37.1%) n (%)
same,deaths,after study drug discontinuation due to progressive disease,Two deaths
same,"heme toxicity, ECG, neutrophil count, QT interval/QTcF",all subjects,"no reports of heme toxicity or clinically significant abnormal ECG and neutrophil count changes, including QT interval or QTcF prolongation"
same,"TEAEs leading to drug withdrawal or study discontinuation, subjects",all subjects (7/35),20.0%
same,subjects with at least one TEAE,all subjects (34/35),97.1%
same,subjects with Grade 3 TRAEs considered related to SLC-391,all subjects (N = 35),8.6%
same,subjects with a maximum of Grade 1 TEAEs,all subjects (N = 35),8.6%
same,subjects with a maximum of Grade 2 TEAEs,all subjects (N = 35),54.3%
same,subjects with a maximum of Grade 3 TEAEs,all subjects (N = 35),34.3%
same,subjects with dosing interrupted due to TEAEs,all subjects (N = 35),25.7%
same,subjects with one or more TRAE,all subjects (N = 35),88.6%
same,subjects with SAEs,"all subjects (N = 35), eight SAEs in five subjects",14.3%
same,"subjects with SAEs leading to dose interruption, drug withdrawal, or study discontinuation","all subjects (N = 35), four SAEs in three subjects",8.6%
same,dose recommended by the safety review committee for further investigations,"based on safety profile, PK and in vitro/in vivo efficacy data",150 mg BID
same,clinical chemistry-related toxicities,"hypokalaemia, hypomagnesaemia, hyponatraemia, hypophosphataemia, increased blood creatinine, decreased blood zinc, all unrelated to SLC-391",Most clinical chemistry-related toxicities were Grade 1 or 2

# — paper PMC12736120, “First-in-Human Phase I Clinical Trial of SLC-391, a Novel and Selective AXL Inhibitor, in Patients with Advanced Solid Tumours” (Pharmaceuticals, 2025)
